Results published in PubChem BioAssay (NCI).
Several values for one entry are separate records, joined by “and”; a condition that tells them apart may be missing. Identical values can stand only once.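 96-well plates; 48 h exposure; 5 concentrations. Endpoints by linear interpolation between flanking doses. Not reached: highest tested concentration assigned. Abbreviation: GI50, concentration required for 50% inhibition of growth. TGI: concentration producing complete growth inhibition.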

How the values were obtained:
Assay in all cases: DTP human tumour cell line panel, 48 h
SK-MEL-28 melanoma = tested on: SK-MEL-28 melanoma
CCRF-CEM leukemia = tested on: CCRF-CEM leukemia
TK-10 renal = tested on: TK-10 renal
NCI-H460 lung = tested on: NCI-H460 lung
SF-268 CNS = tested on: SF-268 CNS
NCI-H522 lung = tested on: NCI-H522 lung
KM12 colon = tested on: KM12 colon
SK-MEL-5 melanoma = tested on: SK-MEL-5 melanoma
OVCAR-5 ovarian = tested on: OVCAR-5 ovarian
UACC-257 melanoma = tested on: UACC-257 melanoma
SK-MEL-2 melanoma = tested on: SK-MEL-2 melanoma

CC(=O)Nc1ccc(Sc2nnc(NC(C)=O)s2)cc1
TGI (SK-MEL-28 melanoma): > 100 µM
TGI (CCRF-CEM leukemia): > 100 µM
TGI (TK-10 renal): > 100 µM
TGI (NCI-H460 lung): > 100 µM
TGI (SF-268 CNS): > 100 µM
TGI (NCI-H522 lung): > 100 µM
TGI (KM12 colon): > 100 µM
TGI (SK-MEL-5 melanoma): > 100 µM
TGI (OVCAR-5 ovarian): > 100 µM
TGI (UACC-257 melanoma): > 100 µM

O=[N+]([O-])c1cccc(N=Nc2c(O)ccc3ccccc23)c1
TGI (SK-MEL-28 melanoma): > 100 µM
TGI (CCRF-CEM leukemia): 56.7 µM
TGI (TK-10 renal): > 100 µM
TGI (SF-268 CNS): > 100 µM
TGI (NCI-H522 lung): > 100 µM
TGI (KM12 colon): > 100 µM
TGI (SK-MEL-2 melanoma): > 100 µM
TGI (SK-MEL-5 melanoma): > 100 µM
TGI (OVCAR-5 ovarian): > 100 µM
TGI (UACC-257 melanoma): > 100 µM

COc1cc(C=O)cc(O)c1O
TGI (SK-MEL-28 melanoma): > 100 µM
TGI (CCRF-CEM leukemia): > 100 µM
TGI (TK-10 renal): > 100 µM
TGI (NCI-H460 lung): > 100 µM
TGI (SF-268 CNS): > 100 µM
TGI (NCI-H522 lung): > 100 µM
TGI (KM12 colon): > 100 µM
TGI (UACC-257 melanoma): > 100 µM

O=C1c2ccccc2C(=O)N1CC(CN1C(=O)c2ccccc2C1=O)(C(=O)OCc1ccccc1)C(=O)OCc1ccccc1
TGI (SK-MEL-28 melanoma): > 100 µM
TGI (CCRF-CEM leukemia): > 100 µM
TGI (NCI-H460 lung): > 100 µM
TGI (NCI-H522 lung): > 100 µM
TGI (KM12 colon): > 100 µM
TGI (SK-MEL-2 melanoma): > 100 µM
TGI (SK-MEL-5 melanoma): > 100 µM
TGI (OVCAR-5 ovarian): > 100 µM

O=c1oc2ccc([N+](=O)[O-])cc2cc1Br
TGI (SK-MEL-28 melanoma): > 100 µM
TGI (CCRF-CEM leukemia): > 100 µM
TGI (TK-10 renal): > 100 µM
TGI (NCI-H460 lung): > 100 µM
TGI (SF-268 CNS): > 100 µM
TGI (NCI-H522 lung): > 100 µM
TGI (KM12 colon): > 100 µM
TGI (SK-MEL-2 melanoma): > 100 µM
TGI (SK-MEL-5 melanoma): > 100 µM
TGI (OVCAR-5 ovarian): > 100 µM
TGI (UACC-257 melanoma): > 100 µM

Cn1c(=O)c(Cl)c(N=[N+]=[N-])c2ccccc21
TGI (SK-MEL-28 melanoma): > 100 µM
TGI (CCRF-CEM leukemia): > 100 µM
TGI (TK-10 renal): > 100 µM
TGI (NCI-H460 lung): > 100 µM
TGI (SF-268 CNS): > 100 µM
TGI (NCI-H522 lung): > 100 µM
TGI (KM12 colon): > 100 µM
TGI (SK-MEL-2 melanoma): > 100 µM
TGI (SK-MEL-5 melanoma): > 100 µM
TGI (OVCAR-5 ovarian): > 100 µM
TGI (UACC-257 melanoma): > 100 µM

O=[N+]([O-])C(=C/c1cccs1)/C(=C\c1cccs1)[N+](=O)[O-]
TGI (SK-MEL-28 melanoma): 2.32 µM
TGI (CCRF-CEM leukemia): 0.276 µM
TGI (TK-10 renal): 7.76 µM
TGI (NCI-H460 lung): 5.31 µM
TGI (SF-268 CNS): 10.4 µM
TGI (KM12 colon): 13.4 µM
TGI (SK-MEL-2 melanoma): 6.46 µM
TGI (SK-MEL-5 melanoma): 2.94 µM
TGI (OVCAR-5 ovarian): 7.21 µM
TGI (UACC-257 melanoma): 3.46 µM

C=CCCCCCCCCC(=O)O
TGI (SK-MEL-28 melanoma): 322 µM
TGI (CCRF-CEM leukemia): 292 µM
TGI (NCI-H460 lung): 191 µM
TGI (SF-268 CNS): 254 µM
TGI (NCI-H522 lung): 209 µM
TGI (KM12 colon): 107 µM
TGI (SK-MEL-2 melanoma): 152 µM
TGI (SK-MEL-5 melanoma): 183 µM
TGI (OVCAR-5 ovarian): 351 µM
TGI (UACC-257 melanoma): 492 µM

CCOC(=O)C(OP(=O)(OCC)OCC)C(F)(F)F (centres undefined)
TGI (SK-MEL-28 melanoma): > 100 µM
TGI (CCRF-CEM leukemia): > 100 µM
TGI (TK-10 renal): > 100 µM
TGI (NCI-H460 lung): > 100 µM
TGI (SF-268 CNS): > 100 µM
TGI (NCI-H522 lung): > 100 µM
TGI (KM12 colon): > 100 µM
TGI (SK-MEL-2 melanoma): > 100 µM
TGI (OVCAR-5 ovarian): > 100 µM
TGI (UACC-257 melanoma): > 100 µM

COc1cccc2c1C(=O)c1c(O)c3c(c(O)c1C2=O)C[C@@](O)(C(=O)CO)CC3OC1CC(NCCCC(OC(C)=O)OC(C)=O)C(O)C(C)O1 (some centres undefined)
TGI (SK-MEL-28 melanoma): 0.00787 µM
GI50 (CCRF-CEM leukemia): 0.104 nM
TGI (CCRF-CEM leukemia): > 1 µM
GI50 (TK-10 renal): 363 nM
TGI (TK-10 renal): > 1 µM
GI50 (NCI-H522 lung): < 0.1 nM
TGI (NCI-H522 lung): 0.00346 µM and 0.000412 µM
GI50 (KM12 colon): < 0.1 nM
TGI (KM12 colon): 0.000187 µM
GI50 (SK-MEL-2 melanoma): < 0.1 nM
GI50 (SK-MEL-5 melanoma): < 0.1 nM
TGI (SK-MEL-5 melanoma): 0.00028 µM
GI50 (OVCAR-5 ovarian): 0.347 nM
TGI (OVCAR-5 ovarian): 0.701 µM
GI50 (UACC-257 melanoma): 0.314 nM
TGI (UACC-257 melanoma): 0.00739 µM and 0.00144 µM

CCN1CCC(O)(c2ccc(O)cc2)C(C(=O)c2ccc(O)cc2)C1 (centres undefined)
TGI (SK-MEL-28 melanoma): 31.7 µM
TGI (CCRF-CEM leukemia): 30 µM
TGI (TK-10 renal): 31.5 µM
TGI (NCI-H460 lung): > 100 µM
TGI (SF-268 CNS): > 100 µM
TGI (KM12 colon): 45.4 µM
TGI (SK-MEL-5 melanoma): 22.7 µM
TGI (OVCAR-5 ovarian): 35.6 µM
TGI (UACC-257 melanoma): 32.4 µM

CN(C(=O)c1ccc(OCCCC(=O)O)c(Cl)c1Cl)C1CCCC1
TGI (SK-MEL-28 melanoma): > 100 µM
TGI (CCRF-CEM leukemia): > 100 µM
TGI (NCI-H460 lung): > 100 µM
TGI (SF-268 CNS): > 100 µM
TGI (NCI-H522 lung): > 100 µM
TGI (KM12 colon): > 100 µM
TGI (SK-MEL-2 melanoma): > 100 µM
TGI (SK-MEL-5 melanoma): > 100 µM
TGI (OVCAR-5 ovarian): > 100 µM
TGI (UACC-257 melanoma): > 100 µM

COC1C(O)C(C)OC(OC2CCC3(C)C(CCC4C3C(O)CC3(C)C(C5=CC(=O)OC5)CCC43O)C2)C1O (centres undefined)
TGI (SK-MEL-28 melanoma): 1.62 µM
TGI (TK-10 renal): 1.57 µM
TGI (NCI-H460 lung): 0.777 µM
TGI (SF-268 CNS): 0.532 µM
TGI (NCI-H522 lung): 0.251 µM
TGI (KM12 colon): 6.12 µM
TGI (SK-MEL-2 melanoma): 1.59 µM
TGI (SK-MEL-5 melanoma): 0.501 µM
TGI (OVCAR-5 ovarian): 1.77 µM
TGI (UACC-257 melanoma): 3.13 µM

CNC(=O)NS(=O)(=O)c1ccc(C)cc1
TGI (SK-MEL-28 melanoma): > 100 µM
TGI (CCRF-CEM leukemia): > 100 µM
TGI (TK-10 renal): > 100 µM
TGI (NCI-H460 lung): > 100 µM
TGI (SF-268 CNS): > 100 µM
TGI (NCI-H522 lung): > 100 µM
TGI (KM12 colon): > 100 µM
TGI (SK-MEL-2 melanoma): > 100 µM
TGI (SK-MEL-5 melanoma): > 100 µM
TGI (OVCAR-5 ovarian): > 100 µM
TGI (UACC-257 melanoma): > 100 µM

CC1=C2C3OC(=O)C(C)C3CCC2(C)C=CC1=Nc1ccccc1 (centres undefined)
TGI (SK-MEL-28 melanoma): > 100 µM
TGI (CCRF-CEM leukemia): > 100 µM
TGI (NCI-H460 lung): > 100 µM
TGI (SF-268 CNS): > 100 µM
TGI (NCI-H522 lung): > 100 µM
TGI (KM12 colon): > 100 µM
TGI (SK-MEL-2 melanoma): > 100 µM
TGI (SK-MEL-5 melanoma): > 100 µM
TGI (OVCAR-5 ovarian): > 100 µM
TGI (UACC-257 melanoma): > 100 µM

Cc1ccc(-c2cc(-c3ccco3)c(C#N)c(=O)n2C2OC(CO)C(O)C(O)C2O)cc1 (centres undefined)
TGI (SK-MEL-28 melanoma): > 100 µM
TGI (CCRF-CEM leukemia): > 100 µM
TGI (TK-10 renal): > 100 µM
TGI (NCI-H460 lung): > 100 µM
TGI (SF-268 CNS): > 100 µM
TGI (NCI-H522 lung): > 100 µM
TGI (KM12 colon): > 100 µM
TGI (SK-MEL-5 melanoma): 45.7 µM
TGI (OVCAR-5 ovarian): > 100 µM
TGI (UACC-257 melanoma): > 100 µM
